{
  "source": "patent US11497740B2",
  "about": "“Use of Jumonji C demethylase inhibitors for the treatment and prevention of chemotherapy resistance and radioresistance in cancer” (THE BOARD OF REGENTS OF THE UNIVERSITY OF TEXAS SYSTEM, priority 2016, dated 2022)",
  "key": {"H1299 NSCLC xenografts": {"system": "H1299 NSCLC xenografts", "assay": "Tumor growth delay with JIB-04 and IR, H1299 xenografts", "type": "in vivo, mice", "conditions": "JIB-04 50 mg/kg oral gavage, IR 2 Gy 4 h after drug, every other day, 12 doses", "procedure": "H1299 NSCLC cells were injected subcutaneously (5×10^6 cells in 100 μL) into the right posterior leg of female athymic nude mice (nu/nu, 5-6 weeks old). Treatment was initiated when the subcutaneous tumors reached an average size of 150 to 200 mm^3. Mice were treated with JIB-04 (50 mg/kg/day) by oral gavage or with vehicle (12.5% Cremophor EL, 12.5% DMSO as an aqueous suspension) as control; radiation was administered 4 hours after treatment. The treatment regimen consisted of a total of 12 doses of drug and/or ionizing radiation given every other day. Tumor growth delay and the dose enhancement factor were then determined. Body weight and general health were monitored every other day during the drug-treatment period and afterward. Standard survival criteria was applied to ensure animals including severe lethargy, 20% weight loss, tumor burden >2,000 mm^3 and difficulty breathing. Survival data was analyzed using GraphPad Prism software."}, "H3K9me3 at DSBs": {"system": "H3K9me3 at DSBs", "assay": "γH2AX immunoprecipitation, H3K9me3 at DSBs", "type": "cell-based, Human", "conditions": "JIB-04 4 h, IR 20 Gy", "procedure": "For Histone demethylase activity determination 10×10^6 H1299 cells were seeded in P150 plates. Next day cells were preincubated with JIB-04 for 4 h and then irradiated with 20 Gy. Media was removed from cells, washed with PBS and fixed with 3% w/v PFA, 2% w/v sucrose in PBS for 1 min. Then cells were washed, scraped into media, pelleted by centrifugation (at 500 g for 2 min) and washed with Phosphatase inhibitor 1×, 1 μM Wortmannin (WM) and protease inhibitors 1× (Sigma). Cell pellets were re-suspended in 2.5× the packed cell volume (PCV) of Nucleosome Preparation Buffer (NPB, 10 mM HEPES [pH 7.9], 10 mM KCl, 1.0 mM CaCl2, 1.5 mM MgCl2, 0.34 M sucrose, 10% glycerol, 1 mM DTT, 0.1% Triton X-100) containing Phosphatase inhibitor, 1 μM Wortmannin (WM) and protease inhibitors (Sigma) and 100 U ml-1 micrococcal nuclease (MNase) and incubated at […] for 45 min (note: WM is required to block in vitro DNA-PK/ATM activation by MNase-produced DSBs). An equal volume of Nucleosome Solubilization Buffer (NSB=Nucleosome preparation buffer+2% [v/v] NP-40, 2% [v/v] Triton X-100, 600 mM NaCl) was then added. Samples were then vortexed, sonicated briefly and centrifuged at 10,000 rpm for 10 min. […] Protein levels on samples were quantified and equal amounts of protein run on 4-12% SDS acrylamide gels. […] Quantification was done using the using ImageJ software (National Institute of Health, NIH)"}, "HR repair in U2OS cells": {"system": "HR repair in U2OS cells", "assay": "GFP HR reporter assay, U2OS cells", "type": "cell-based", "procedure": "FIGS. 29A-29B. […] FIG. 29A: U2OS cells were transfected with the NHEJ or HR constructs (0.25 ug and 0.5 ug respectively) and a pN1-mCherry plasmid (0.05 ug). Then cells were seeded in the presence or absence of JIB-04. Cells were analyzed by flow cytometry for GFP expression 12 h and 24 h after transfection using green-versus-red fluorescent plot. 10,000 cells were analyzed in each sample and NHEJ or HR Repair Frequency (% GFP+ cells/% mCherry+ cells) plotted. Average+/−SEM of triplicates for one of two representative experiments is shown. ***p<0.001 vs control (Kruskal-Wallis). FIG. 29B: Representative FACS traces for the analysis of NHEJ and HR shown in A."}, "[1]": {"system": "homologous recombination (HR)", "assay": "Green fluorescent protein HR reporter assay, H1299", "type": "cell-based, Human", "conditions": "H1299 cells with integrated construct", "procedure": "The green fluorescent protein assay was performed as described by Seluanov et al. To generate reporter cell lines 2 million H1299 cells were transfected with 0.5 μg of linearized NHEJ-I, or HR reporter constructs using the Amaxa Nucleofector; program X-005. G418, at 1 mg/ml, was added to the media 1 day post-transfection. Then Transient expression of the I-SceI endonuclease was used to generate a DNA DSB at the integrated GFP gene sequences. Briefly, H1299 cells containing the NHEJ or the HR constructs treated by 4 h with JIB-04 or DMSO were transfected with the pCMV3xnls-I-SceI (5 μg, functional endonuclease) and a pN1-mCherry plasmid (0.05 μg) as transfection control as previously stated. For the analysis of NHEJ and HR cells were harvested, resuspended in ˜1 ml 1×PBS, put on ice, and run on a BD FACScan instrument. GFP and mCherry fluorescence was analyzed using FlowJo software. Red-versus-green was plotted and DNA repair efficiency was calculated from the number of GFP-positive cells divided by the number of cells mCherry-positive cells."}, "[2]": {"system": "radioresistant (HCC95, HCC1195 and HCC2279) NSCLC cell lines", "assay": "Clonogenic survival with IR, radioresistant NSCLC lines", "type": "cell-based, Human", "conditions": "all radioresistant NSCLC lines tested", "procedure": "Cells were serially diluted to appropriate concentrations and plated into 60-mm dish in triplicate for 4 h. Then cells were treated with the indicated drugs, and irradiated 4 hours later with graded doses of radiation for concurrent treatment or irradiated and 4 hours later the drugs added for post-treatment. All cells were irradiated at room temperature in ambient air using a 137Cs source (Mark 1-68 irradiator, JL Shepherd & Associated). Surviving colonies were stained with crystal violet approximately 10 to 14 days later and colonies formed with more than 50 cells were counted. Clonogenic fraction of irradiated cells was normalized to the plating efficiency of unirradiated controls. The data are presented as the mean±SD. The curve S=e^−(αD+βD2) was fitted to the experimental data using a least square fit algorithm using the program Sigma Plot 11.0 (Systat Software, Inc.)."}},
  "data": [
    {"smiles": "Clc1ccc(N/N=C(\\c2ccccc2)c2ccccn2)nc1", "note": "[JIB-04]", "values": [
      {"measurement": "survival of tumor bearing mice, JIB-04 with IR", "setting": "H1299 NSCLC xenografts", "result": "survived significantly longer"},
      {"measurement": "tumor growth, JIB-04 with IR", "setting": "H1299 NSCLC xenografts", "result": "synergistic robust inhibition of tumor growth"},
      {"measurement": "H3K9me3 at sites of DNA damage marked by γH2AX", "setting": "H3K9me3 at DSBs", "result": "No changes in H3K9me3"},
      {"measurement": "HR repair", "setting": "HR repair in U2OS cells", "result": "inhibits HR repair"},
      {"measurement": "HR repair efficiency", "setting": "[1]", "result": "≤ 50 % of normal levels"},
      {"measurement": "survival fraction at 2 Gy of radiation (SF2)", "setting": "[2]", "result": "decreasing the survival fraction at 2 Gy of radiation (SF2)"}
    ]}
  ]
}
